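All cell lines were grown in 96-well plates and treated with compound for 48 hours. Abbreviation: GI50, concentration required for 50% inhibition of growth. TGI denotes the concentration required for complete inhibition of growth.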
Columns and labels:
Test in all cases: inhibition of tumour cell growth, NCI panel, 48 h
ACHN renal = test system: ACHN renal
786-0 renal = test system: 786-0 renal
BT-549 breast = test system: BT-549 breast
OVCAR-3 ovarian = test system: OVCAR-3 ovarian
HT29 colon = test system: HT29 colon
SF-295 CNS = test system: SF-295 CNS
SNB-75 CNS = test system: SNB-75 CNS
SW-620 colon = test system: SW-620 colon
MALME-3M melanoma = test system: MALME-3M melanoma
U251 CNS = test system: U251 CNS
NCI/ADR-RES ovarian = test system: NCI/ADR-RES ovarian
HL-60(TB) leukemia = test system: HL-60(TB) leukemia
SR leukemia = test system: SR leukemia
M14 melanoma = test system: M14 melanoma
HCC-2998 colon = test system: HCC-2998 colon
LOX IMVI melanoma = test system: LOX IMVI melanoma
RXF 393 renal = test system: RXF 393 renal
COLO 205 colon = test system: COLO 205 colon
SF-539 CNS = test system: SF-539 CNS
SF-268 CNS = test system: SF-268 CNS
SK-MEL-5 melanoma = test system: SK-MEL-5 melanoma
UACC-62 melanoma = test system: UACC-62 melanoma
IGROV1 ovarian = test system: IGROV1 ovarian
KM12 colon = test system: KM12 colon
MDA-MB-435 = test system: MDA-MB-435
HCT-116 colon = test system: HCT-116 colon
MCF7 breast = test system: MCF7 breast
NCI-H522 lung = test system: NCI-H522 lung
DU-145 prostate = test system: DU-145 prostate
OVCAR-8 ovarian = test system: OVCAR-8 ovarian
NCI-H226 lung = test system: NCI-H226 lung
HOP-92 NSCLC = test system: HOP-92 NSCLC
SN12C renal = test system: SN12C renal
CAKI-1 renal = test system: CAKI-1 renal
UACC-257 melanoma = test system: UACC-257 melanoma
A498 renal = test system: A498 renal
TK-10 renal = test system: TK-10 renal
NCI-H23 lung = test system: NCI-H23 lung
SNB-19 CNS = test system: SNB-19 CNS
A549 NSCLC = test system: A549 NSCLC
MDA-MB-231 breast = test system: MDA-MB-231 breast
RPMI-8226 leukemia = test system: RPMI-8226 leukemia
HOP-62 NSCLC = test system: HOP-62 NSCLC
NCI-H460 lung = test system: NCI-H460 lung
PC-3 prostate = test system: PC-3 prostate
UO-31 renal = test system: UO-31 renal
HCT-15 colon = test system: HCT-15 colon
SK-OV-3 ovarian = test system: SK-OV-3 ovarian
OVCAR-4 ovarian = test system: OVCAR-4 ovarian
HS 578T breast = test system: HS 578T breast
SK-MEL-28 melanoma = test system: SK-MEL-28 melanoma
MOLT-4 leukemia = test system: MOLT-4 leukemia
CCRF-CEM leukemia = test system: CCRF-CEM leukemia
T-47D breast = test system: T-47D breast
OVCAR-5 ovarian = test system: OVCAR-5 ovarian
K-562 leukemia = test system: K-562 leukemia
SK-MEL-2 melanoma = test system: SK-MEL-2 melanoma

O=c1c(Oc2ccc(F)cc2F)cc2cnc(NC3CCOCC3)nc2n1CCCO
GI50 (ACHN renal): > 25 µM
TGI (ACHN renal): > 25 µM
GI50 (786-0 renal): > 25 µM
TGI (786-0 renal): > 25 µM
GI50 (BT-549 breast): > 25 µM
TGI (BT-549 breast): > 25 µM
GI50 (OVCAR-3 ovarian): > 25 µM
TGI (OVCAR-3 ovarian): > 25 µM
GI50 (HT29 colon): > 25 µM
TGI (HT29 colon): > 25 µM
GI50 (SF-295 CNS): > 25 µM
TGI (SF-295 CNS): > 25 µM
GI50 (SNB-75 CNS): 24.4 µM
TGI (SNB-75 CNS): > 25 µM
GI50 (SW-620 colon): > 25 µM
TGI (SW-620 colon): > 25 µM
GI50 (MALME-3M melanoma): > 25 µM
TGI (MALME-3M melanoma): > 25 µM
GI50 (U251 CNS): > 25 µM
TGI (U251 CNS): > 25 µM
GI50 (NCI/ADR-RES ovarian): > 25 µM
TGI (NCI/ADR-RES ovarian): > 25 µM
GI50 (HL-60(TB) leukemia): > 25 µM
TGI (HL-60(TB) leukemia): > 25 µM
GI50 (SR leukemia): > 25 µM
TGI (SR leukemia): > 25 µM
GI50 (M14 melanoma): > 25 µM
TGI (M14 melanoma): > 25 µM
GI50 (HCC-2998 colon): > 25 µM
TGI (HCC-2998 colon): > 25 µM
GI50 (LOX IMVI melanoma): > 25 µM
TGI (LOX IMVI melanoma): > 25 µM
GI50 (RXF 393 renal): > 25 µM
TGI (RXF 393 renal): > 25 µM
GI50 (COLO 205 colon): > 25 µM
TGI (COLO 205 colon): > 25 µM
GI50 (SF-539 CNS): > 25 µM
TGI (SF-539 CNS): > 25 µM
GI50 (SF-268 CNS): > 25 µM
TGI (SF-268 CNS): > 25 µM
GI50 (SK-MEL-5 melanoma): > 25 µM
TGI (SK-MEL-5 melanoma): > 25 µM
GI50 (UACC-62 melanoma): > 25 µM
TGI (UACC-62 melanoma): > 25 µM
GI50 (IGROV1 ovarian): > 25 µM
TGI (IGROV1 ovarian): > 25 µM
GI50 (KM12 colon): > 25 µM
TGI (KM12 colon): > 25 µM
GI50 (MDA-MB-435): > 25 µM
TGI (MDA-MB-435): > 25 µM
GI50 (HCT-116 colon): > 25 µM
TGI (HCT-116 colon): > 25 µM
GI50 (MCF7 breast): > 25 µM
TGI (MCF7 breast): > 25 µM
GI50 (NCI-H522 lung): > 25 µM
TGI (NCI-H522 lung): > 25 µM
GI50 (DU-145 prostate): > 25 µM
TGI (DU-145 prostate): > 25 µM
GI50 (OVCAR-8 ovarian): > 25 µM
TGI (OVCAR-8 ovarian): > 25 µM
GI50 (NCI-H226 lung): > 25 µM
TGI (NCI-H226 lung): > 25 µM
GI50 (HOP-92 NSCLC): > 25 µM
TGI (HOP-92 NSCLC): > 25 µM
GI50 (SN12C renal): > 25 µM
TGI (SN12C renal): > 25 µM
GI50 (CAKI-1 renal): > 25 µM
TGI (CAKI-1 renal): > 25 µM
GI50 (UACC-257 melanoma): > 25 µM
TGI (UACC-257 melanoma): > 25 µM
GI50 (A498 renal): > 18.3 µM
TGI (A498 renal): > 25 µM
GI50 (TK-10 renal): > 25 µM
TGI (TK-10 renal): > 25 µM
GI50 (NCI-H23 lung): > 25 µM
TGI (NCI-H23 lung): > 25 µM
GI50 (SNB-19 CNS): > 25 µM
TGI (SNB-19 CNS): > 25 µM
GI50 (A549 NSCLC): > 25 µM
TGI (A549 NSCLC): > 25 µM
GI50 (MDA-MB-231 breast): > 25 µM
TGI (MDA-MB-231 breast): > 25 µM
GI50 (RPMI-8226 leukemia): > 25 µM
TGI (RPMI-8226 leukemia): > 25 µM
GI50 (HOP-62 NSCLC): > 25 µM
TGI (HOP-62 NSCLC): > 25 µM
GI50 (NCI-H460 lung): > 25 µM
TGI (NCI-H460 lung): > 25 µM
GI50 (PC-3 prostate): > 25 µM
TGI (PC-3 prostate): > 25 µM
GI50 (UO-31 renal): > 11.3 µM
TGI (UO-31 renal): > 21.1 µM
GI50 (HCT-15 colon): > 25 µM
TGI (HCT-15 colon): > 25 µM
GI50 (SK-OV-3 ovarian): > 25 µM
TGI (SK-OV-3 ovarian): > 25 µM
GI50 (OVCAR-4 ovarian): > 14.6 µM
TGI (OVCAR-4 ovarian): > 25 µM
GI50 (HS 578T breast): > 25 µM
TGI (HS 578T breast): > 25 µM
GI50 (SK-MEL-28 melanoma): > 25 µM
TGI (SK-MEL-28 melanoma): > 25 µM
GI50 (MOLT-4 leukemia): > 25 µM
TGI (MOLT-4 leukemia): > 25 µM
GI50 (CCRF-CEM leukemia): > 25 µM
TGI (CCRF-CEM leukemia): > 25 µM
GI50 (T-47D breast): > 25 µM
TGI (T-47D breast): > 25 µM
GI50 (OVCAR-5 ovarian): > 25 µM
TGI (OVCAR-5 ovarian): > 25 µM
GI50 (K-562 leukemia): > 25 µM
TGI (K-562 leukemia): > 25 µM
GI50 (SK-MEL-2 melanoma): > 25 µM
TGI (SK-MEL-2 melanoma): > 25 µM
